Values quoted from earlier work, collected in US20100209419A1, “Method and formulation for treating adverse biological conditions” (priority 2008, published 2010).

Conditions: at 79° F.

- water solubility: 34 % w/v
SMILES: CS(C)(=O)=O [MSM, methylsulfonylmethane]
